Columns and labels:
[1] = Thermal analysis (DSC) of the crystals; assay type: physicochemical; details: 25-300° C., 20° C./min, dry nitrogen gas 50 mL/min
Description: For thermal analysis, the measurement was performed in a dry nitrogen gas stream (50 mL/min) from 25° C. to 300° C. at a temperature rise rate of 20° C./min.
For identification of the solvate form of the present invention, a powder X-ray diffraction apparatus (manufactured by Bruker) GADDS detector system and a thermal analysis equipment (manufactured by Mettler-Toledo) DSC822e system were used. The powder X-ray diffraction pattern was measured at room temperature using CuKα as a monochromator within the 2θ angle range of 1.5-41.5°. The thermal analysis was performed in a dry nitrogen gas stream (50 mL/min) from 25° C. to 300° C. at a temperature rise rate of 20° C./min.
Using the white solids obtained in Examples 1 and 2 as sample 1 (hydrochloride salt) and sample 2 (calcium salt), respectively, the thermal analysis was performed under the following conditions.
apparatus: DSC822e manufactured by Metter-Toledo temperature rise rate: 20° C./min atmosphere: dry nitrogen gas 50 mL/min measurement temperature: 25-300° C.
Using the solid obtained in Example 3 as sample 3 (2,2,2-[…] hydrate crystal), the thermal analysis was performed under the following conditions.

[2] = test system: cardiomyocytes; details: cited from earlier work

Compound | crystal stability by thermal analysis [1] | no noticeable endothermic and exothermic peaks up to (temperature) [1] | excessive influx of calcium ions into cardiomyocytes [2]
Cc1ccc(N2CCNCC2)c(S(=O)(=O)O)c1.Cl [sample 1, 5-methyl-2-(piperazin-1-yl)benzenesulfonic acid hydrochloride] | stable | 200 °C | 
Cc1ccc(N2CCNCC2)c(S(=O)(=O)O)c1 [compound A, 5-methyl-2-(piperazin-1-yl)benzenesulfonic acid] |  |  | remarkably suppresses
Cc1ccc(N2CCNCC2)c(S(=O)(=O)O)c1.OCC(F)(F)F [Sample 3, 5-methyl-2-(piperazin-1-yl)benzenesulfonic acid 2,2,2-tetrafluoroethanolate] | stable | around 80 °C | 
Calcium 5-methyl-2-(piperazin-1-yl)benzenesulfonate [sample 2] | stable | 200 °C | 

Reference: patent US20100004266A1, “Salt or Solvate of 5-Methyl-2(Piperazin-1-Yl)Benzenesulfonic Acid” (Mitsubishi Tanabe Pharma Corporation, priority 2006, published 2010)
